Measurements: US11634466B2, “Musclin peptides and methods of use thereof” (UNIVERSITY OF IOWA RESEARCH FOUNDATION, priority 2016, dated 2023)

Columns and labels:
[1] = tested on: WT and Ostn-KO mice; assay: VO2 max / oxygen consumption on metabolic treadmill (indirect calorimetry) after musclin infusion; format: in vivo; conditions: for oxygen consumption, VO2, over time upon initiation of treadmill exercise: 3 weeks of musclin by osmotic pump
Excerpt: Natriuretic peptide/cGMP signaling is increasingly recognized as a key regulator of metabolic homeostasis, including effects on skeletal muscle mitochondrial biogenesis and oxidative phosphorylation potential. Maximal aerobic capacity (VO2 max) is commonly used to estimate overall aerobic fitness based on cardiopulmonary function and oxidative phosphorylation potential. To determine whether musclin production impacts aerobic capacity as a potential mechanism underlying differences in exercise tolerance, exercise-trained Ostn-KO and WT mice were monitored on a metabolic treadmill equipped for indirect calorimetry (Columbus instruments, Columbus Ohio). After 5 days of training, mice were placed on the stationary treadmill for 30 minutes and then were exposed to the protocol of escalating exercise workload to determine their VO2 max. […] To assess this, electron micrographs of longitudinal sections through tibialis anterior of exercised mice were examined and appear to show smaller mitochondrial size in the Ostn-KO compared to WT mice (FIG. 6B). […] Furthermore, disruption of normal musclin signaling appears to impact fiber type composition. Specifically, histologic examination of skeletal muscles from Ostn-KO vs. WT mice indicates a shift towards more pure glycolytic type IIb fibers in the KO (FIGS. 10A-10B). Differences between sedentary WT and Ostn-KO mice were less marked (FIGS. 11A-11G), which were consistent with the findings that exercise augments musclin signaling in the WT mice. […] The pattern of distribution of fiber types from muscles of sedentary WT and Ostn-KO was similar to that of their exercise-trained counterparts, consistent with a slower adaptation of fiber type to exercise, except that there was a slightly more prominent component of type IIA fibers in exercised mice (FIG. 12, n=4 each for tibialis anterior and n=3 each for biceps femoris, *p<0.05).
Whole body composition was obtained by time-domain nuclear magnetic resonance under isoflurane anesthesia (Bruker Minispec; Billerica, Mass.). […]
A multi-lane treadmill (Columbus Instruments, Columbus, Ohio) was used to simultaneously exercise model mice with their controls. […] For indirect calorimetry, oxygen consumption (VO2) and CO2 generation were measured using a two-lane modular treadmill connected to the Oxymax indirect calorimetry system (Columbus Instruments, Inc.). […]

[2] = tested on: mTORC1 targets (4EBP1, P70S6K); assay: Western blot of mTOR targets in skeletal muscle after musclin infusion; format: in vivo; conditions: WT mice
Protocol: Western blotting: Whole cell protein extracts were prepared by homogenizing skeletal muscle tissue in NaCl 150 mM, Tris-HCl 50 mM (pH 7.8), supplemented with 1.5% Triton X-100, protease and phosphatase inhibitors (Roche). Nuclear extracts were obtained using the Subcellular Protein Fractionation Kit for Tissues (Thermo Scientific).
Electrophoresis was performed on 3-8% gradient Nu-Page Tris-Acetate or 10% Nu-Page Bis-Tris gels and transferred to 0.2 μm Sequi-Blot PVDF membranes (Bio-Rad). The membranes were blotted with total AKT1 and phospho-AKT1([…], T308, Cell Signaling), FOXO1 (Cell Signaling), total OXPHOS (rodent, Abcam), musclin (custom rabbit IgG produced against partial mouse musclin sequence NH2-sfsgfgspldrlsagsvehrgkqrkavdhskkr-COOH (SEQ ID NO: 4), corresponding to amino acids 80-112, Gen Bank ID: AAS87598.1, Anaspec, Fremont, Calif.), and GAPDH (Santa Cruz Biotechnologies) antibodies. Densitometric analysis of western blots was performed using Adobe Photoshop (Adobe Systems, San Jose, Calif.).
These findings are paralleled by more pure glycolytic fibers and greater fatigability in tibialis anterior (TA) muscles of exercise-trained Ostn-KO vs. WT mice (FIGS. 13A-13C). […] GSK3β phosphorylation is associated with increased autophosphorylation of mTOR at S2481 (FIGS. 14A-14B). Furthermore, consistent with the known activating effect of GSK3β inhibition on mTORC1, we find increased phosphorylation of the mTOR targets 4EBP1, P70S6K and ULK1 in skeletal muscles of trained WT vs. Ostn-KO mice 1 h after last exercise (FIGS. 15A-15B). […] We also find that skeletal muscle autophagy flux 1 h after last exercise is increased in exercise-trained Ostn-KO vs. WT, as reflected in higher LC3A II/I ratio and lower expression of P62 on western blots (FIGS. 16A-16G).

[3] = musclin 1 ng/g/h i.p. by osmotic pump for 7 d, skeletal muscle western blot, n=3

Substance: H-SFSGFGSPLDRLSAGSVEHRGKQRKAVDHSKKR-OH [musclin]
- VO2 max ([1]; Ostn-KO mice after 3 weeks of musclin infusion via osmotic pumps, n=3): 136.6 ± 1.67 mL/min/kg
- oxygen consumption, VO2, over time upon initiation of treadmill exercise ([1]; Ostn-KO mice, vs. WT treated with saline): better than WT treated with saline once steady state was achieved
- VO2 max ([1]; WT mice after 3 weeks of musclin infusion via osmotic pumps, n=4): 133.9 ± 1.28 mL/min/kg
- oxygen consumption, VO2, over time upon initiation of treadmill exercise ([1]; WT mice, vs. WT mice treated with saline): slightly better for several time points
- 4EBP1/GAPDH [2, 3]: 1.78±0.05
- P70S6K/GAPDH [2, 3]: 1.73±0.03
- p-4EBP1/total 4EBP1 [2, 3]: 0.59±0.07
- p-P70S6K/total P70S6K [2, 3]: 0.32±0.06
- phosphorylation of mTORC1 targets ([2]; musclin 1 ng/g/h i.p. for 7 d vs. saline-treated mice): greater phosphorylation
